{"source": "patent US20230114946A1", "about": "“MESOSCALE NANOPARTICLES FOR SELECTIVE TARGETING TO THE KIDNEY AND METHODS OF THEIR THERAPEUTIC USE” (Memorial Sloan Kettering Cancer Center, priority 2015, published 2023)", "system": "human kidney proximal tubular epithelial cell line HK-2", "test": "In vitro nanoparticle uptake", "format": "cell-based", "conditions": "inhibitor of clathrin/caveolin-mediated endocytosis", "description": "The following cell lines were used to determine uptake of anionic and cationic nanoparticles in vitro: MCF-7 human breast adenocarcinoma (ATCC; Manassas, Va.), SK-RC-48 human clear cell renal cell carcinoma (ccRCC) (Weill Cornell Medical College; New York, N.Y.), bEND3 mouse brain endothelial (ATCC), endothelial cell line EA-926, and human kidney proximal tubular epithelial cell line HK-2. MCF-7 cells were cultured in Dulbecco's Modified Eagle Medium (DMEM) with penicillin (10,000 U/mL)/streptomycin (10,000 U/mL)/glutamine (29.2 mg/mL) (Gibco; Carlsbad, Calif.), 0.01 mg/mL human recombinant insulin (Gibco), and 10% fetal bovine serum (FBS) (Gibco); SK-RC-48 were cultured in DMEM with 1× penicillin/streptomycin/glutamine and 10% FBS; and bEND3 cells in the same plus 1% glutaMAX (Gibco). HK-2 cells were cultured in Keratinocyte Serum Free Media (Gibco). EA-926 cells were cultured in RPMI-1640 medium (Gibco) supplemented with 10% FBS. Cells were passaged approximately weekly and media changed every 2-3 days. Cells were seeded into a 6-well cell culture dish for uptake studies. […]\nCells were incubated with 100 μg/mL NPs in 1 mL of their respective complete medias for 30 minutes. […] Cells were imaged with a fluorescence microscope using Cy5 filters."}
{"smiles": "O=C(N/N=C/c1ccc(O)c(O)c1)c1cc2ccccc2cc1O", "note": "[Dynasore]", "values": [{"measurement": "inhibition of MNP uptake into HK-2 cells", "result": "can be inhibited"}]}
